Here are results for 13 compounds from ChEMBL document CHEMBL1201862, “PubChem BioAssay data set” (2004).

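Cells were grown in 96-well plates and exposed to each compound for 48 hours at five concentrations; endpoints were interpolated linearly between bracketing concentrations, or set to the highest concentration if not reached. Abbreviation: GI50, concentration required for 50% inhibition of growth.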 Calls of active or inactive are those of the source. No stated cut-off is given here; in the data, active = GI50 up to about 1.1 µM and inactive = higher. Some results are limits rather than exact numbers.

Holding throughout (assay): inhibition of tumour cell growth, NCI panel, 48 h
The test system of assay [1] is HCT-15.
The test system of assay [2] is SNB-19.
Assay [3] deals with TK-10.
Assay [4] concerns Malme-3M.
For assay [5], the system named is CCRF-CEM.
The test system of assay [6] is RPMI-8226.
For assay [7], the system named is RXF 393.
Assay [8] relates to SK-MEL-2.
For assay [9], the system named is SR.
Assay [10] relates to UACC-257.
The test system of assay [11] is SK-MEL-5.
Assay [12] relates to OVCAR-3.
The subject of assay [13] is UO-31.
Assay [14] concerns SN12C.
For assay [15], the system named is M14.
Assay [16] relates to NCI-H23.
Assay [17] deals with SF-295.
Assay [18] relates to OVCAR-4.

For `S=c1[nH]c(=S)c2nnn(-c3ccccc3)c2[nH]1`, the GI50 in assay [1] is over 100 µM; in [2], > 100 µM (inactive); in assay [3], > 100 µM (inactive); in assay [4], > 100 µM (inactive); in assay [5], > 100 µM (inactive); in assay [6], > 100 µM (inactive). Also, the GI50 in assay [7], in assay [8], in assay [9], in assay [10], in assay [11] and in [12] was > 100 µM (inactive) in each case. For the same compound, the GI50 in [13], in [14], in [15] and in assay [16] was > 100 µM (inactive) in each case.
Consider `CCc1cccc(C)c1NC(=O)C1=C(C)NC(C)=C(C(=O)Nc2c(C)cccc2CC)C1c1ccc2c(c1)OCO2`, for which the GI50 in [2] was 29.1 µM (inactive); in assay [3], 26.6 µM (inactive); in assay [4] it was 15.6 µM (inactive); in [5] it was 18.8 µM (inactive); in [6] it was 16.8 µM (inactive); in [7], 13.2 µM (inactive). Also, the GI50 in [8] was 15.1 µM (inactive); in assay [17], 17.5 µM (inactive); in [10] it was 18.5 µM (inactive); in assay [11], 16.2 µM (inactive); in [12] it was 17.5 µM (inactive); in [18], 20.1 µM (inactive). The GI50 in assay [13] is 15.3 µM (inactive); in assay [14], 19.2 µM (inactive); in assay [15], 16.1 µM (inactive); in assay [16] it was 16.5 µM (inactive).
In the case of `Cc1c2c(cc3c1C(=O)C(=O)C1=C3OC[C@@H]1C)C(C)(C)CCC2`, the GI50 in assay [1] is 14.2 µM; in [2], 22.1 µM (inactive); in assay [3], 26.5 µM (inactive); in assay [4], 15.6 µM (inactive); in [5] it was 18 µM (inactive); in [7], 17.9 µM (inactive). For the same compound, the GI50 in assay [8] is 6.15 µM (inactive); in assay [17], 14.5 µM (inactive); in [9], 11.6 µM (inactive); in [10], 15.1 µM (inactive); in assay [11] it was 13.3 µM (inactive); in assay [12] it was 13.9 µM (inactive). Moreover, the GI50 was 17.9 µM (inactive) in [18]; 18.7 µM (inactive) in assay [13]; 16.8 µM (inactive) in assay [14]; 13.9 µM (inactive) in [15]; 14.8 µM (inactive) in [16].
Regarding `O=c1[nH]c2nc3ccccc3c(=O)n2nc1Cc1ccccc1`, the GI50 in assay [1] was over 100 µM; in assay [2], > 100 µM (inactive); in [4] it was > 100 µM (inactive); in assay [5], > 100 µM (inactive); in assay [6], > 100 µM (inactive); in assay [8] it was > 100 µM (inactive). The GI50 in [17] was > 100 µM (inactive); in assay [9], > 100 µM (inactive); in [10] it was > 100 µM (inactive); in assay [11] it was > 100 µM (inactive); in assay [12], 44.2 µM (inactive); in assay [18], 28.3 µM (inactive). The GI50 in [13] was 56.8 µM (inactive); in assay [14], > 100 µM (inactive); in assay [15], > 100 µM (inactive); in assay [16], > 100 µM (inactive).
On to `COc1ccc(C2=Nc3ccccc3SC(C)C2)cc1` (centres undefined), for which the GI50 in assay [1] is over 100 µM; in [2], > 100 µM (inactive); in assay [3], > 100 µM (inactive); in [4], > 100 µM (inactive); in assay [5] it was 33.4 µM (inactive); in [6], 17.3 µM (inactive). For the same compound, the GI50 in [7], in assay [8], in [17], in [10], in assay [12] and in assay [18] was > 100 µM (inactive) throughout. For the same compound, the GI50 in assay [13], in [14], in assay [15] and in assay [16] was > 100 µM (inactive) in each case.
For `CCCCNC1CCCCC[C@H]1O` (some centres undefined), the GI50 in assay [2], in assay [3], in [5], in [6], in assay [7] and in [8] was > 100 µM (inactive) each time. Besides, the GI50 in assay [17], in assay [9], in [10], in [11], in assay [12] and in assay [18] was > 100 µM (inactive) each time. Further, the GI50 in assay [13], in assay [14], in [15] and in assay [16] was > 100 µM (inactive) each time.
Consider `N#Cc1cccc(C2SCc3nc4ccccc4n32)c1` (centres undefined), for which the GI50 in assay [2] is > 100 µM (inactive); in assay [3] it was > 100 µM (inactive); in [4] it was > 100 µM (inactive); in assay [5], > 100 µM (inactive); in assay [7] it was 80.2 µM (inactive); in [8], > 100 µM (inactive). Further, the GI50 in assay [17] is > 100 µM (inactive); in assay [9] it was 38.4 µM (inactive); in assay [10], 80 µM (inactive); in [11] it was 19.8 µM (inactive); in [18], 86.7 µM (inactive); in assay [13], 61.1 µM (inactive). For the same compound, the values for the GI50 in assay [14] and in assay [16] were 75.9 µM (inactive) and 74.8 µM (inactive), respectively.
`COC(=O)C(=O)C(/C(=N/N)C(=O)Nc1ccccc1C(N)=O)c1nc2ccc([N+](=O)[O-])cc2nc1O` (centres undefined): the GI50 is over 100 µM in assay [1]; > 100 µM (inactive) in assay [2]; > 100 µM (inactive) in assay [3]; > 100 µM (inactive) in [4]; > 100 µM (inactive) in assay [5]; > 100 µM (inactive) in [6]. For the same compound, the GI50 in assay [8], in assay [17], in assay [9], in assay [10], in assay [11] and in assay [12] was > 100 µM (inactive) in each case. In addition, the GI50 in assay [18] was > 100 µM (inactive); in [13] it was 58.2 µM (inactive); in [14] it was > 100 µM (inactive); in assay [15], > 100 µM (inactive); in assay [16] it was > 100 µM (inactive).
For the compound `C/C(=C\C(C)COCc1ccccc1)[C@H](COCc1ccccc1)OCc1ccccc1` (some centres undefined), the GI50 was over 100 µM in assay [1]; > 100 µM (inactive) in [2]; > 100 µM (inactive) in assay [3]; 68.1 µM (inactive) in assay [5]; 50.1 µM (inactive) in assay [6]; 26.9 µM (inactive) in assay [7]. In addition, the GI50 in assay [8] is > 100 µM (inactive); in [17], > 100 µM (inactive); in assay [11], 37.6 µM (inactive); in assay [12], > 100 µM (inactive); in assay [18] it was 63.2 µM (inactive); in assay [13], 83.9 µM (inactive). Moreover, the GI50 was > 100 µM (inactive) in assay [14], > 100 µM (inactive) in [15] and 48 µM (inactive) in [16].
For the compound `Nc1nc2c(ncn2CCOC(c2ccccc2)P(=O)(O)O)c(=O)[nH]1` (centres undefined), the GI50 is over 100 µM in assay [1]; > 100 µM (inactive) in assay [2]; > 100 µM (inactive) in [3]; > 100 µM (inactive) in assay [4]; > 100 µM (inactive) in assay [7]; > 100 µM (inactive) in assay [8]. For the same compound, the GI50 in assay [17], in assay [9], in assay [10], in assay [11], in [12] and in [13] was > 100 µM (inactive) in each case. The GI50 in [14] and in assay [16] was > 100 µM (inactive) each time.
Consider `COc1ccc(OC)c(CCc2cc(OC)c(OC)cc2C)c1`, for which the GI50 is 92.7 µM (inactive) in assay [2]; 89.7 µM (inactive) in assay [3]; 4.2 µM (inactive) in assay [4]; 11 µM (inactive) in assay [5]; 14.4 µM (inactive) in assay [6]; 6.68 µM (inactive) in assay [8]. The GI50 in assay [17] was 6.89 µM (inactive); in [10], 26.7 µM (inactive); in assay [11], 1.62 µM (inactive); in [12], 3.05 µM (inactive); in assay [18], 8.2 µM (inactive); in assay [13] it was 30.1 µM (inactive). Also, the GI50 in assay [14] is 81.3 µM (inactive); in assay [15], 4.26 µM (inactive); in assay [16], 32.1 µM (inactive).
Consider `NC(=O)NNC(=O)CCn1[nH]c(=O)c(Cl)c(Cl)c1=O`, for which the GI50 was over 100 µM in assay [1]; > 100 µM (inactive) in assay [2]; > 100 µM (inactive) in [3]; > 100 µM (inactive) in assay [4]; > 100 µM (inactive) in assay [5]; > 100 µM (inactive) in assay [7]. In addition, the GI50 in [8], in [17], in assay [10], in assay [11], in [12] and in assay [18] was > 100 µM (inactive) throughout. Moreover, the GI50 in assay [13], in [14], in assay [15] and in assay [16] was > 100 µM (inactive) throughout.
`COc1ccccc1C1C(C(=O)Nc2ccccc2)=C(C)NC(C)=C1C(=O)Nc1ccccc1`: the GI50 in assay [1] was 54 µM; in assay [2], > 100 µM (inactive); in assay [3] it was 89.5 µM (inactive); in assay [4] it was > 100 µM (inactive); in assay [6], 19.5 µM (inactive); in assay [7], 80.2 µM (inactive). The GI50 in assay [8] is 32 µM (inactive); in assay [17], 76.4 µM (inactive); in assay [10], 75.9 µM (inactive); in assay [11], 31.8 µM (inactive); in assay [12], 84.1 µM (inactive); in [18] it was 54.8 µM (inactive). Besides, the GI50 was 56.5 µM (inactive) in assay [13], > 100 µM (inactive) in assay [14], 45 µM (inactive) in assay [15] and > 100 µM (inactive) in [16].
